The text below walks through data of US20050130938A1, “Method for alleviating syndromes and conditions of discomfort of the mammalian intestinal and genito-urinary tracts” (AkPharma Inc., priority 2001, published 2005).

Structures are written as SMILES.

The subject of one data set is intestinal musculature. The note with it: some cases; product withdrawn December 2000; cited from earlier work.
Data set [1] deals with excised animal uterus tissue. The note with it: cited from earlier work; for action on the uterus: in vitro, excised animal uterus tissue.
The conditions of data set [2]: cited from earlier work.
Data set [3] relates to Food-Sensitive Interstitial Cystitis Patients. The note with it: cited from earlier work.
For data set [4], the system named is IBS-related symptoms and conditions. In words: 'pre-study' IBS survey of patients taking CGP tablets for 28 days. Type of data set: in vivo, human. From the text: A ‘pre-study’ IBS survey was taken in a large private gastroenterology practice in southern New Jersey. Each of the patients in the survey consumed a series of 2-tablet doses of CGP, in which each tablet contained 0.335 grams CGP so that each dosage was 0.67 gram of CGP. Two tablets were consumed at breakfast, lunch, and dinner, regardless of the acidity of the foods consumed at the meals, and two additional tablets were consumed with any snack eaten during the day, regardless of the acidity of the snack. The total consumption by each patient varied from 8-10 tablets per day up to 20 tablets per day.
The survey included twelve patients, eight of whom completed graphs of their 28-day experience with CGP. The experiences of the four remaining patients were written up by the medical supervisor based on oral reports. […] The patients marked daily, in 10% increments and 10% decrements, whether they felt up to 100% better or down to 100% worse as a result of the treatment.

Data set [5] has as its system Interstitial Cystitis Symptoms. The note with it: key exacerbant foods and beverages; cited from earlier work.
In the next data set the test system is astrocytes and neurons. The note with it: culture; cited from earlier work.
The test system of a further data set is Interstitial Cystitis. The note with it: ICSG members; cited from earlier work.

For the compound `Cc1[nH]cnc1CN1CCc2c(c3ccccc3n2C)C1=O` [Lotronex], in the data set on intestinal musculature, the “adverse events in use” value is listed as “intestinal ischemic collapse”.
For `O=P([O-])([O-])OCC(O)CO.[Mg+2]` (stereo not drawn) [magnesium glycerophosphate], in data set [1], the “anti-spasmodic behavior on the intestine” value is on record as “exclude the intestine” and the “action on the uterus” value is given as “uterine anti-spasmodic agents”.
With `O=P([O-])([O-])OC(CO)CO.[Na+].[Na+]` [sodium glycerophosphate, Sodium Beta-Glycerophosphate], in data set [1], the “anti-spasmodic behavior on the intestine” value is “exclude the intestine” and the “action on the uterus” value was “uterine anti-spasmodic agents”.
On to `O=P([O-])([O-])OCC(O)CO.[Ca+2]` (stereo not drawn) [CGP, 1,2,3-propanetriol, mono(dihydrogen phosphate) calcium salt (1:1)], for which the “dissociation of calcium from the anion” value in data set [2] (regardless of the pH level in the stomach) is “instantly dissociated”. In addition, the “pain as a result of consuming CGP” value in data set [3] (decreased from 76.7%) is recorded as 41%. Also, the “urinary urgency as a result of consuming CGP” value in data set [3] (decreased from 79.5%) was 51%. In addition, the “oral reports to the medical supervisor” value in data set [4] (patients without graphs, one of four discontinued) was “helpful and effective at relieving symptoms and/or pain”. The “effect on pain and/or symptoms in two of the eight patients who completed graphs (flatliners)” value in data set [4] (self-rated daily graph) is “no effect”. Further, the “results of the remaining six patients who completed graphs” value in data set [4] (self-rated daily graph, some going to 100% improvement and maintaining that level) is reported as “good to remarkable”. In addition, the “drop on the self-rated scale on the day without CGP” value in data set [4] (single patients, one value each) was 10-20% and “50% better” to “50% worse” and “100% better” to “40% worse.”. Moreover, the “condition on the one day on which CGP was not ingested” value in data set [4] (three patients, returned to improved state upon resuming treatment) is given as “marked condition deterioration”. The “patients showed major improvements in IBS-related symptoms and conditions” value in data set [4] (twelve patients, oral 0.67 gram per dose with meals and snacks, 28 days) amounted to 75%. For the same compound, in data set [5], the “patients reported a reduction in [urinary] urgency” value is on record as 61.3%; the “patients reported a reduction in pain and discomfort” value is given as 70.4%. In the data set on astrocytes and neurons, the “effect on astrocytes in vitro” value is “enhance the proliferation and differentiation of astrocytes”; the “effect on neurons compared with calcium chloride and non-reagent added media” value is reported as “significant survival effects”. Moreover, in the data set with Interstitial Cystitis, the “participants enabled to tolerate a wider variety of foods of an acidic nature” value was 81% and the “participants found it to be beneficial” value is on record as 69%.
For `O=C([O-])[O-].[Ca+2]` [calcium carbonate, reference compound], the “time after ingestion until calcium is released” value in data set [2] (estimated, only in an acidic milieu) was 20 to 30 min.
